Source: PMC12647143 (Nature Communications, 2025)

What was measured:
[1] = system: K. pneumoniae ATCC 700603; assay: Antimicrobial-resistance test; format: cell-based, Klebsiella pneumoniae; settings: 1/2 × MIC
MRSA ATCC 33591 [2] = assay: Antimicrobial-resistance test; format: cell-based, methicillin-resistant Staphylococcus aureus; settings: for increase in MIC after continuous 14 passages exposure: MRSA ATCC 33591, 1/2 × MIC
MRSA ATCC 33591 [3] = assay: ROS accumulation assay; format: cell-based, methicillin-resistant Staphylococcus aureus; settings: 2 × MIC and 4 × MIC
MRSA ATCC 33591 [4] = assay: Bacteria-induced pneumonia model; format: in vivo, Kunming mice; settings: MRSA ATCC 33591 pneumonia model
[5] = system: K. pneumoniae ATCC 700603; assay: ROS accumulation assay; format: cell-based, Klebsiella pneumoniae; settings: 1 ×, 2 ×, 4 × MIC
[6] = ELISA of NGAL, Cystatin C and Kim-1 in serum and urine; settings: 20 mg/kg or 30 mg/kg; 7 days
[7] = system: K. pneumoniae ATCC 700603; assay: Bacteria-induced pneumonia model; format: in vivo, Kunming mice
[8] = In vivo toxicity assay, single intraperitoneal injection
[9] = Renal tubular injury score; settings: AMP 1003 20 or 30 mg/kg; polymyxin B 20 mg/kg; score 0-5
[10] = RT-qPCR of Cystatin C, Lipocalin 2, Havcr1 mRNA in kidney; format: in vivo, Kunming mice; settings: AMP 1003 20 or 30 mg/kg; polymyxin B 20 mg/kg
mammalian cells = settings: cited from earlier work
[11] = system: multidrug-resistant bacteria; settings: cited from earlier work

## CNC(C)C1CCC(N)C(OC2C(N)CC(N)C(OC3OCC(C)(O)C(NC)C3O)C2O)O1 (centres unmarked) [Gentamicin]
[1]
  increase in MIC after continuous 14 passages exposure: up to 512 fold
MRSA ATCC 33591 [2]
  increase in MIC after continuous 14 passages exposure: up to 128 fold
MRSA ATCC 33591 [2]; final generation of MRSA ATCC 33591 treated with the peptide for 14 passages
  increase in MIC (cross-resistance): 128 fold

## C[C@@H](O)[C@H]1C(=O)N2C(C(=O)O)=C(SCCN=CN)C[C@H]12 [Imipenem]
[1]
  increase in MIC after continuous 14 passages exposure: up to 16 fold
MRSA ATCC 33591 [2]
  increase in MIC after continuous 14 passages exposure: up to 8 fold

## CN(C)c1ccc(O)c2c1C[C@H]1C[C@H]3[C@H](N(C)C)C(O)=C(C(N)=O)C(=O)[C@@]3(O)C(O)=C1C2=O [Minocycline]
[1]
  increase in MIC after continuous 14 passages exposure: up to 8 fold

## CN[C@H](CC(C)C)C(=O)N[C@H]1C(=O)N[C@@H](CC(N)=O)C(=O)N[C@H]2C(=O)N[C@H]3C(=O)N[C@H](C(=O)N[C@H](C(=O)O)c4cc(O)cc(O)c4-c4cc3ccc4O)[C@H](O)c3ccc(c(Cl)c3)Oc3cc2cc(c3O[C@@H]2O[C@H](CO)[C@@H](O)[C@H](O)[C@H]2O[C@H]2C[C@](C)(N)[C@H](O)[C@H](C)O2)Oc2ccc(cc2Cl)[C@H]1O [Vancomycin]
MRSA ATCC 33591 [3]
  ROS accumulation: no such effect
MRSA ATCC 33591 [4]
  lung histology (H&E): substantially alleviated these pathological changes

## Polymyxin B
[5]
  ROS accumulation: ROS elevation was observed only at 2 × MIC and 4 × MIC
[6]
  NGAL, Cystatin C and Kim-1 levels in serum or urine: did not cause noticeable changes
[7]; K. pneumoniae ATCC 700603 pneumonia model
  lung histology (H&E): substantially alleviated these pathological changes
[7]; K. pneumoniae ATCC 700603 pneumonia, 5 mg/kg i.p. at 4, 8, 12 h, 24 h, n = 6
  decrease of bacterial load in the lungs: 1.58 log10CFU
[8]; 7 days, vs control group
  organ indices (heart, liver, spleen, lung, kidney): higher than that in the control group
[8]; 7 days, AMP 1003 20, 30 or 40 mg/kg, polymyxin B 20 mg/kg
  BUN and CREA levels: comparable to that of control group
[8]; 7 days, AMP 1003 all doses, polymyxin B 20 mg/kg
  hepatotoxicity (ALT, AST): no apparent hepatotoxicity
[8]; AMP 1003: only at 40 mg/kg
  organ histology (H&E): more severe tissue damage
[9]
  renal tubular injury scores: significantly higher injury scores than normal mice
[10]
  Cystatin C, Lipocalin 2 and Havcr1 mRNA in the kidneys: notable increase in Cystatin C and Lipocalin 2 mRNA levels

## melittin
Mammalian cells
  concentration causing cytotoxicity and hemolysis: 2000 nM
[11]
  MIC: 1 to 16 µM
